# In patent publication US7745465B2, “Method of enhancing cellular production of molecular chaperone, hydroxylamine derivatives useful for enhancing the chaperone production and the preparation thereof” (CytRx Corporation, priority 1995, dated 2010):
# Key:
# HSPs = assay: Western blot overview of all HSPs in heat shocked H9c2 heart cells; assay type: cell-based, rat; details: added 16 hours before the heat treatment
# Method: Experiments set forth in this section were conducted to determine whether N-[2-hydroxy-3-(1-piperidinyl)propoxy]-3-pyridinecarboximidoyl chloride maleate acts to increase the expression of molecular chaperon by a cell. The accumulation of different heat shock proteins subsequent to a period of exposure to heat shock alone, and to heat shock in combination with N-[2-hydroxy-3-(1-piperidinyl)propoxy]-3-pyridinecarboximidoyl chloride maleate administration, was examined by adding 10^−5 M of N-[2-hydroxy-3-(1-piperidinyl)propoxy]-3-pyridinecarboximidoyl chloride maleate before, during, or immediately after hyperthermic treatment of heart myogenic cells (H9c2 cells).
# The embryonic rat heart-derived cell line H9c2 was obtained from European Collection of Animal cell Cultures (ECACC) (88092904). The cells were maintained at 37° C. in Dulbecco's modified Eagle's medium (DMEM) supplemented with 10% fetal calf serum (GIBCO) in JOUAN C02 thermostat (5% CO2).
# Heat shock was performed at 43° C. in CO2 thermostat for the given time intervals (20, 40, 60, 90 and 120 min.). Cells were then taken back to 37° C. for 6 hours and proteins were extracted for SDS-PAGE. […]
# Protein concentration was determined from 5:1 samples by the Bradford assay (M. M. Braford, Anal. Biochem., 72: 248-254 (1976)) in three parallel. […]
# Male Sprague-Dawley rats = assay: Protection against cardiac ischaemia: survival after 5 minutes coronary occlusion and reperfusion; assay type: in vivo, rat
# [1] = system: Streptozotocin-induced diabetic (STZ) rats; assay: Wound healing of thermal wounds in STZ-diabetic rats; assay type: in vivo, rat; details: 4% containing cream, topical
# Method: (ii) Streptozotocin-induced diabetic (STZ) rats with partial-to full thickness thermal wounds created on bilateral thoracic depilated skin by electroheating probe (3 mm of diameter; 60° C.; for 30, 60 and 90 sec.), treated by topical application of 1%, 2% or 4% N-[2-hydroxy-3-(1-piperidinyl)propoxy]-3-piridinecarboximidoyl chloride maleate containing cream or vehicle were used to determine the wound healing in form of self-control, side to side comparison. Wound closure was recorded photographically and using the digital epiluminescence microscopic technique. Wound areas were measured by planimetry 48 h and 21 days after heat injury. Level of hsp72 of skin biopsy samples was determined using Western blot analysis.
structure (smiles),measurement,setting,value
O=C(O)/C=C\C(=O)O.OC(CON=C(Cl)c1cccnc1)CN1CCCCC1 (stereo not shown) [N-[2-hydroxy-3-(1-piperidinyl)-propoxy]3-pyridinecarboximidoyl chloride maleate],level of all HSPs increased further as compared to that observed upon heat stress,HSPs,at least twofold
same,Survival (%),Male Sprague-Dawley rats; 20 mg/kgbw p.o.,100%
same,Survival (%),"Male Sprague-Dawley rats; i.v. 1 mg/kgbw, 5 min. before the occlusion, non-treated control 10",100%
same,wound closure compared to vehicle control,[1],accelerated wound closure
